Results: paper PMC10067842 (Scientific Reports, 2023)
Where “and” joins values, the source holds several entries; their conditions need not be identical. Equal entries are not always repeated. Entries after “also recorded” stand apart in the source; their conditions may differ. Where two headings read alike, the source gives them in different places.

Columns and labels:
[1] = molecular target: T1, ORF3a channel of SARS-CoV-2 (Severe acute respiratory syndrome coronavirus 2, UniProt P0DTC3); assay: cell-based; settings: for IC50: whole-cell currents, current differences at −60 mV, read-out: IC50, patch-clamp
T1 sequence (P0DTC3 1-275): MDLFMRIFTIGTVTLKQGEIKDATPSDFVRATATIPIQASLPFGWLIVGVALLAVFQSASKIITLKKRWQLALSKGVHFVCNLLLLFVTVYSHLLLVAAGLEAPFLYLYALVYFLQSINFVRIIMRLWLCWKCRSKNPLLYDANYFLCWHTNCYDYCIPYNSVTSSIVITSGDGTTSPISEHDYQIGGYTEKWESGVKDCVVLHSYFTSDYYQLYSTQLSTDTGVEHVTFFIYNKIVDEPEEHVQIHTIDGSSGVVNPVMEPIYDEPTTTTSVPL

[2] = tested on: HEK293 cells transfected with ORF3a; type: cell-based
[3] = molecular target: T2, ORF3a viroporin of SARS-CoV-2 (Severe acute respiratory syndrome coronavirus 2, UniProt P0DTC3); settings: for activity against ORF3a (ORF3a-induced cytotoxicity): cell viability assay, result in words
SARS-CoV = settings: cited from earlier work
[4] = molecular target: T2, ORF3a viroporin of SARS-CoV-2; assay: cell-based; settings: IC50, reversing viroporin-induced cell damage
ORF3a of SARS-CoV [5] = settings: cited from earlier work
HCoV-OC43 = settings: cited from earlier work
ORF3a of SARS-CoV [6] = settings: Xenopus oocytes; cited from earlier work
HEK293 cells = assay: MTT cell viability assay of control cells transfected with empty vector; type: cell-based; settings: 5 µM and higher (> 1 µM for ECGC), 10–20 µM
[7] = current–voltage recordings, result in words

Molecule | activity against ORF3a channel in patch-clamp [1, 7] | activity against ORF3a (ORF3a-induced cytotoxicity) [3] | IC50 [1] [nM] | IC50 [4] | also measured
CCCCC[C@H](O)CC(=O)CCc1ccc(O)c(OC)c1 [6-gingerol] | inactive | inactive |  |  | morphology of ORF3a-transfected cells after treatment [2]: morphology of dying cells; activity in the same expression system (SARS-CoV; Vero E6 cells): only low activity
NC12CC3CC(CC(C3)C1)C2 [amantadine, reference compound] |  |  | 4.5 ± 0.2 | 43.7 ± 11.1 µM | Percentage inhibition from MTT data at the highest inhibitor concentration ([3]; Fig. 4D): 78%
O=c1cc(-c2ccc(O)cc2)oc2cc(O)cc(O)c12 [apigenin] |  | inactive |  |  | 
COc1cc(/C=C/C(=O)CC(=O)/C=C/c2ccc(O)c(OC)c2)ccc1O [curcumin] |  |  |  |  | activity against ORF3a channel in patch-clamp [1]: confirmed the inhibitory activity; Percentage inhibition from MTT data at the highest inhibitor concentration [3]: 72%; inhibition of viral replication (SARS-CoV; SARS-CoV infected Vero E6 cells): effectively inhibited viral replication
Cc1cc(O)c2c(c1)C(=O)c1cc(O)cc(O)c1C2=O [emodin] |  |  |  |  | inhibition of ORF3a of SARS-CoV (ORF3a of SARS-CoV [5]): inhibitor; virus release (HCoV-OC43): able to repress virus release
O=c1c(-c2ccc(O)cc2)coc2cc(O)cc(O)c12 [genistein] |  | inactive |  |  | inhibition of ORF3a activity of SARS-CoV (ORF3a of SARS-CoV [6]): do not
O=c1c(O)c(-c2ccc(O)cc2)oc2cc(O)cc(O)c12 [kaempferol] |  | inhibitory activity | 2.4 ± 0.5 | 5.2 µM and 5.23 µM | 
O=C1C[C@@H](c2ccc(O)cc2)Oc2cc(O)cc(O)c21 [naringenin] |  | inactive |  |  | inhibition of ORF3a activity of SARS-CoV (ORF3a of SARS-CoV [6]): do not
COc1ccc(-c2cc(=O)c3c(OC)c(OC)c(OC)c(OC)c3o2)cc1OC [nobiletin] | confirmed the inhibitory activity | inhibitory activity | 1.8 ± 0.3 | 3.8 ± 0.9 µM | effect on viability of control cells (cytotoxic or proliferative effects) (HEK293 cells): increased cell proliferation; also recorded: increased cell viability; activity against ORF3a (ORF3a-induced cytotoxicity) ([3]; listed as Nobiletin): potent activity
O=c1c(O)c(-c2ccc(O)c(O)c2)oc2cc(O)cc(O)c12 [quercetin] | confirmed the inhibitory activity | inhibitory activity | 3.9 ± 0.7 | 2.5 ± 0.2 µM | effect on viability of control cells (cytotoxic or proliferative effects) (HEK293 cells): increased cell proliferation; effect on viability of control cells (cytotoxic or proliferative effects) (HEK293 cells; listed as Quercetin): increased cell viability
Oc1ccc(/C=C/c2cc(O)cc(O)c2)cc1 [resveratrol] | confirmed the inhibitory activity | inhibitory activity | 1.5 ± 0.1 | 6.7 µM and 6.73 µM | Percentage inhibition from MTT data at the highest inhibitor concentration ([3]; Fig. 4D): 86%
CC(N)C12CC3CC(CC(C3)C1)C2 (stereo not shown) [rimantadine, reference compound] |  |  |  | 4.4 ± 1.3 µM | potency of rimantadine higher than that of amantadine ([1]; patch clamp experiments): approximately fourfold; potency of rimantadine higher than that of amantadine ([3]; cell viability assays): ~ tenfold
epigallocatechin gallate [EGCG] | confirmed the inhibitory activity | inhibitory activity | 0.7 ± 0.1 |  | effect on viability of control cells (cytotoxic or proliferative effects) (HEK293 cells): increased cell proliferation; also recorded: increased cell viability; morphology of ORF3a-transfected cells after treatment [2]: healthy cells with normal morphology; IC50 ([3]; read-out: IC50, reversing viroporin-induced cell damage): 1600 nM and 1560 nM
